Reference: US12083124B2 (Incyte Corporation, priority 2019, dated 2024)
Where two headings read alike, the source gives them in different places.

Experiments:
[1] = target: wild-type un-phosphorylated FGFR2 (Homo sapiens, UniProt P21802); assay: FGFR Enzymatic Assay (FRET peptide phosphorylation), FGFR2
[2] = target: wild-type un-phosphorylated FGFR3 (Homo sapiens, UniProt P22607); assay: FGFR Enzymatic Assay (FRET peptide phosphorylation), FGFR3
[3] = target: wild-type un-phosphorylated FGFR1 (Homo sapiens, UniProt P11362); assay: FGFR Enzymatic Assay (FRET peptide phosphorylation), FGFR1; details: pre-incubated for 4 hours
wild-type un-phosphorylated FGFR1, sequence (P11362 22-822): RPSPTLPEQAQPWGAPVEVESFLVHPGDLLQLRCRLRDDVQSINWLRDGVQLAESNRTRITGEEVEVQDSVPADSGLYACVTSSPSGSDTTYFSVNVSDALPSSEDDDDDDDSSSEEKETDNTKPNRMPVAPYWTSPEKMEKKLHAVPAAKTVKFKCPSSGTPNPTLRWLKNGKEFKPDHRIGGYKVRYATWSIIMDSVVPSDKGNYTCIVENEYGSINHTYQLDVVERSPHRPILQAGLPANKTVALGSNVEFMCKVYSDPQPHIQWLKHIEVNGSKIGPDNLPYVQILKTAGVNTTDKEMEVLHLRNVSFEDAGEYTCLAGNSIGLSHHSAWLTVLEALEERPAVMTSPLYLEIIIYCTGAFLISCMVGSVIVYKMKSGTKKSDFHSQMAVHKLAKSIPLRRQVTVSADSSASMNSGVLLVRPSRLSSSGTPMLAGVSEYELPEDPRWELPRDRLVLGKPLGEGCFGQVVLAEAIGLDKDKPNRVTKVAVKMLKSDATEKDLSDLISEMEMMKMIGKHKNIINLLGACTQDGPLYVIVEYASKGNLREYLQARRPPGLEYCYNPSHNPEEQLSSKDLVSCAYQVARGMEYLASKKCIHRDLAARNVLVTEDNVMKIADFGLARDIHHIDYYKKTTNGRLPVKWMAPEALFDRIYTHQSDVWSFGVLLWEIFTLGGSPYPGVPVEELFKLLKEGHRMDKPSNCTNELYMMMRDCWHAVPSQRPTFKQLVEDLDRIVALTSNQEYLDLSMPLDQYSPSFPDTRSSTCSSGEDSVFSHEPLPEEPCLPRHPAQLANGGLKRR

[4] = target: wild-type un-phosphorylated FGFR4 (Homo sapiens, UniProt P22455); assay: FGFR Enzymatic Assay (FRET peptide phosphorylation), FGFR4
wild-type un-phosphorylated FGFR4, sequence (P22455 22-802): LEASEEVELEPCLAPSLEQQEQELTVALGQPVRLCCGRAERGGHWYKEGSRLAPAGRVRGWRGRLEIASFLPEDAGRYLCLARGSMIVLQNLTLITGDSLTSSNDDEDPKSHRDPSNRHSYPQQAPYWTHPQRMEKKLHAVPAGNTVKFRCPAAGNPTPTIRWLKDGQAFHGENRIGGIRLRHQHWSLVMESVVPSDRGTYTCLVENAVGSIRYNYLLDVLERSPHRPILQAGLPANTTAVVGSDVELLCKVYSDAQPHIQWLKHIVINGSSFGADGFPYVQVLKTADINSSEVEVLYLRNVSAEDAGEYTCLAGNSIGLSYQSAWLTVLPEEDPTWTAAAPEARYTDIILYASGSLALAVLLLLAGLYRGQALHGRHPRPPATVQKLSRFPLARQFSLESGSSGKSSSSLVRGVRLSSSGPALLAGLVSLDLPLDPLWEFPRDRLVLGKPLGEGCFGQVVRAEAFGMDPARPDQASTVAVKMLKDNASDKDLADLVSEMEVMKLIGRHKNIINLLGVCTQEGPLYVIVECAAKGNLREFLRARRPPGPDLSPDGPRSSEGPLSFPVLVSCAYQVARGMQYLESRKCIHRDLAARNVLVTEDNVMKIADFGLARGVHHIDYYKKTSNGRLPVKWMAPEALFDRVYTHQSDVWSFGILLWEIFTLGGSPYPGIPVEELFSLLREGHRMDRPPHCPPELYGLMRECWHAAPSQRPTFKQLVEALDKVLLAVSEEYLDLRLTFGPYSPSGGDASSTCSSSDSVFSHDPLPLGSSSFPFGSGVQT
Protocol: The inhibitor potency of the exemplified compounds was determined in an enzyme discontinuous assay that measures peptide phosphorylation using FRET measurements to detect product formation. Inhibitors were serially diluted in DMSO and a volume of 0.2 μL was transferred to the wells of a 384-well plate. […] Appropriate controls (enzyme blank and enzyme with no inhibitor) were included on the plate. […] The 10 μL/well reaction concentration of the peptide substrate was 500 nM whereas the ATP concentration was maintained near or below the ATP Km. The ATP Km values were pre-determined in a separate series of experiments. The reaction plate was incubated at 25° C. for 1 hr and the reactions were ended with the addition of 5 μL/well of quench solution (50 mM Tris, 150 mM NaCl, 0.5 mg/mL BSA, pH 7.8; 45 mM EDTA, 600 nM staurosporin, with Perkin Elmer Lance Reagents at 3.75 nM Eu-antibody PY20 and 180 nM APC-Streptavidin). The plate was allowed to equilibrate for ˜10 minutes at ambient temperature before scanning on a PheraStar plate reader (BMG Labtech) instrument.
Either GraphPad prism or XLfit was used to analyze the data. The IC50 values were derived by fitting the data to a four parameter logistic equation producing a sigmoidal dose-response curve with a variable Hill coefficient. Prism equation: Y=Bottom+(Top-Bottom)/(1+10^((Log IC50-X)*Hill slope)); XLfit equation: Y=(A+((B−A)/(1+((X/C)^D)))) where X is the logarithm of inhibitor concentration and Y is the response.
GraphPad prism3 was used to analyze the data. The IC50 values were derived by fitting the data to the equation for a sigmoidal dose-response with a variable slope. Y=Bottom+(Top-Bottom)/(1+10^((Log IC50-X)*Hill Slope)) where X is the logarithm of concentration and Y is the response.
The data in Table 1 was measured in wild-type un-phosphorylated FGFR1, FGFR2, FGFR3, and FGFR4 proteins.

[5] = FGFR1, wild-type un-phosphorylated FGFR1
[6] = read-out: FGFR1, wild-type un-phosphorylated FGFR1
[7] = read-out: FGFR4, wild-type un-phosphorylated FGFR4, pre-incubated for 4 hours
[8] = read-out: FGFR2, wild-type un-phosphorylated FGFR2, pre-incubated for 4 hours

wild-type un-phosphorylated FGFR2, sequence (P21802 22-821): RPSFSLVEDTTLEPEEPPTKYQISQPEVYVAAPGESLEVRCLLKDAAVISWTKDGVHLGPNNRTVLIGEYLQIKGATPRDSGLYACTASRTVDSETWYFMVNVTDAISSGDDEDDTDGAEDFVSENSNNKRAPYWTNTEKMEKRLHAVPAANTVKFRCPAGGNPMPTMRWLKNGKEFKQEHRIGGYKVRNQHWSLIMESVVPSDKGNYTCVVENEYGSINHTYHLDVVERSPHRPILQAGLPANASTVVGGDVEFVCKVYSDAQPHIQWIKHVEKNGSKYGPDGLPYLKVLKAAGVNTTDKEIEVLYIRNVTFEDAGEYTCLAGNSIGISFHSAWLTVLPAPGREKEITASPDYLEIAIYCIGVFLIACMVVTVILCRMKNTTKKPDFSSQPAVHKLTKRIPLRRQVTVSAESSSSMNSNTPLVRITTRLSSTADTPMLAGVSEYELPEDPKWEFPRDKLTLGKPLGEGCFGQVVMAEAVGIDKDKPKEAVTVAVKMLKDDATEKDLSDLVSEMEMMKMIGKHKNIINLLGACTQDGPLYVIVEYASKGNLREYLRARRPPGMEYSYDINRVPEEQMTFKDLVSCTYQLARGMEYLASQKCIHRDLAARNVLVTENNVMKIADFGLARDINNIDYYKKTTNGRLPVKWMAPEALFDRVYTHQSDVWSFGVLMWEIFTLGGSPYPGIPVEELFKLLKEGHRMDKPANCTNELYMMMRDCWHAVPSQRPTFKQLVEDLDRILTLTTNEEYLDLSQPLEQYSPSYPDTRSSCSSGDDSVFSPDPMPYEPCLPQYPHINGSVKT
wild-type un-phosphorylated FGFR3, sequence (P22607 23-806): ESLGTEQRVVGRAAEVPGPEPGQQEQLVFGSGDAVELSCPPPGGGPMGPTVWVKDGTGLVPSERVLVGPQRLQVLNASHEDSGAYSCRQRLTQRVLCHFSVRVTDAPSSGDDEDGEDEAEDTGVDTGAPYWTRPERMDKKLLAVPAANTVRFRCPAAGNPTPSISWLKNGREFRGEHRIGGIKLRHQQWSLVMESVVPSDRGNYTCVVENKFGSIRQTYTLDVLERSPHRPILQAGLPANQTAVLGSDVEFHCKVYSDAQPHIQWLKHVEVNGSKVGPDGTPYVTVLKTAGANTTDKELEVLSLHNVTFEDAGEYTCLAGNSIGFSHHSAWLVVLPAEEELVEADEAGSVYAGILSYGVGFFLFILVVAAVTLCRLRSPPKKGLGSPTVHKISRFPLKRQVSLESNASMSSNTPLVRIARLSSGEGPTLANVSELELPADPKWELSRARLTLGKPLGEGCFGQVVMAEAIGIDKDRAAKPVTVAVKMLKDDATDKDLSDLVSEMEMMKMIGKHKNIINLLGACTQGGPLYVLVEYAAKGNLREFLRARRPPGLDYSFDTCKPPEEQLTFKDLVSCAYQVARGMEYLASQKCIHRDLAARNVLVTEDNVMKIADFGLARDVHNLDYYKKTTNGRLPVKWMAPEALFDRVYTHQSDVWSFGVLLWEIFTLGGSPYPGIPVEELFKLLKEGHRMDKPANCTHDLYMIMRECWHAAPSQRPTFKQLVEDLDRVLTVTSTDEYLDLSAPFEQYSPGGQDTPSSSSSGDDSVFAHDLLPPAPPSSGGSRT

`COc1cc2[nH]nc(-c3ccc(CN4CC5CC4CO5)nc3)c2nc1-c1cccc2c1CCC2` (stereo not drawn) [Example 161, 5-((5-(5-(2,3-Dihydro-1H-inden-4-yl)-6-methoxy-1H-pyrazolo[4,3-b]pyridin-3-yl)pyridin-2-yl)methyl)-2-oxa-5-azabicyclo[2.2.1]heptane] was tested, and the IC50 [1] was < 6 nM, the IC50 [2] was < 6 nM and the IC50 [3, 5] was 40 to 100 nM. The IC50 [4] was 40 to 100 nM.
In the case of `COc1cc2[nH]nc(-c3ccc(N4CCN(C)CC4)nc3)c2nc1-c1cccc2c1CCC2C#N` (single isomer, unassigned) [Example 186, 4-(6-Methoxy-3-(6-(4-methylpiperazin-1-yl)pyridin-3-yl)-1H-pyrazolo[4,3-b]pyridin-5-yl)-2,3-dihydro-1H-indene-1-carbonitrile], the IC50 [1] is reported as < 6 nM, the IC50 [2] is reported as < 6 nM and the IC50 [3, 6] is reported as 6 to 40 nM. For the same compound, the IC50 [4, 7] was 6 to 40 nM.
With `Cc1cccc(-c2nc3c(-c4cnn(C)c4)n[nH]c3cc2CO)c1C` [Example 38, (5-(2,3-Dimethylphenyl)-3-(1-methyl-1H-pyrazol-4-yl)-1H-pyrazolo[4,3-b]pyridin-6-yl)methanol] the IC50 [1, 8] was 6 to 40 nM, the IC50 [2] was < 6 nM and the IC50 [3, 5] was > 100 nM. The IC50 [4] was > 100 nM.
`COc1cc2[nH]nc(-c3ccc(C4CC(N(C)C(=O)CCO)C4)nc3)c2nc1-c1cccc2c1CCC2` (stereo not drawn) [Example 189, N-(3-(5-(5-(2,3-Dihydro-1H-inden-4-yl)-6-methoxy-1H-pyrazolo[4,3-b]pyridin-3-yl)pyridin-2-yl)cyclobutyl)-3-hydroxy-N-methylpropanamide] was tested, and the IC50 [1] was < 6 nM, the IC50 [2] was < 6 nM and the IC50 [3, 6] was 6 to 40 nM. The IC50 [4, 7] was 6 to 40 nM.
With `COc1cc2[nH]nc(-c3ccc(C4CCN(C5CCNC5=O)C4)nc3)c2nc1-c1cccc2c1CCC2` (single isomer, unassigned) [Example 105, 3-(5-(5-(2,3-Dihydro-1H-inden-4-yl)-6-methoxy-1H-pyrazolo[4,3-b]pyridin-3-yl)pyridin-2-yl)-[1,3′-bipyrrolidin]-2′-one] the IC50 [1] was < 6 nM, the IC50 [2] was < 6 nM and the IC50 [3, 6] was 6 to 40 nM. It also gave an IC50 [4, 7] of 6 to 40 nM.
With `COc1cc2[nH]nc(-c3ccc(C4CCN(C(C)=O)C4)nc3)c2nc1-c1cccc2c1CCC2` (single isomer, unassigned) [Example 103, 1-(3-(5-(5-(2,3-Dihydro-1H-inden-4-yl)-6-methoxy-1H-pyrazolo[4,3-b]pyridin-3-yl)pyridin-2-yl)pyrrolidin-1-yl)ethan-1-one] the IC50 [1] was < 6 nM, the IC50 [2] was < 6 nM and the IC50 [3, 6] was 6 to 40 nM. It also gave an IC50 [4, 7] of 6 to 40 nM.
`COc1cc2[nH]nc(-c3cnn(C4CN(C(=O)N(C)C)C4)c3)c2nc1-c1cccc(C)c1C` [Example 72, 3-(4-(5-(2,3-Dimethylphenyl)-6-methoxy-1H-pyrazolo[4,3-b]pyridin-3-yl)-1H-pyrazol-1-yl)-N,N-dimethylazetidine-1-carboxamide] was tested, and the IC50 [1] was < 6 nM, the IC50 [2] was < 6 nM and the IC50 [3, 5] was 40 to 100 nM. It also gave an IC50 [4] of 40 to 100 nM.
In the case of `COc1cc2[nH]nc(-c3cnn(C4CN(C(=O)[C@H]5C[C@](C)(O)C5)C4)c3)c2nc1-c1cccc2c1CCC2` [Example 135, (3-(4-(5-(2,3-Dihydro-1H-inden-4-yl)-6-methoxy-1H-pyrazolo[4,3-b]pyridin-3-yl)-1H-pyrazol-1-yl)azetidin-1-yl)((1r,3r)-3-hydroxy-3-methylcyclobutyl)methanone], the IC50 [1] is reported as < 6 nM, the IC50 [2] is reported as < 6 nM and the IC50 [3, 6] is reported as 6 to 40 nM. The IC50 [4, 7] was 6 to 40 nM.
`COc1cc2[nH]nc(-c3cnn(Cc4ccccn4)c3)c2nc1-c1cccc(C)c1C` [Example 66, 5-(2,3-Dimethylphenyl)-6-methoxy-3-(1-(pyridin-2-ylmethyl)-1H-pyrazol-4-yl)-1H-pyrazolo[4,3-b]pyridine] was tested, and the IC50 [1] was < 6 nM, the IC50 [2] was < 6 nM and the IC50 [3, 5] was > 100 nM. For the same compound, the IC50 [4] was > 100 nM.
`COc1cc2[nH]nc(-c3cnn(C4CC(C#N)C4)c3)c2nc1-c1cccc2c1CCC2` (stereo not drawn) [Example 16, 3-(4-(5-(2,3-Dihydro-1H-inden-4-yl)-6-methoxy-1H-pyrazolo[4,3-b]pyridin-3-yl)-1H-pyrazol-1-yl)cyclobutanecarbonitrile] was tested, and the IC50 [1] was < 6 nM, the IC50 [2] was < 6 nM and the IC50 [3, 5] was 40 to 100 nM. The IC50 [4] was > 100 nM.
For `COc1cc2[nH]nc(-c3cnn(CCN4CCOCC4)c3)c2nc1-c1cccc2c1CCC2` [Example 28, 4-(2-(4-(5-(2,3-Dihydro-1H-inden-4-yl)-6-methoxy-1H-pyrazolo[4,3-b]pyridin-3-yl)-1H-pyrazol-1-yl)ethyl)morpholine], the IC50 [1] was < 6 nM, the IC50 [2] was < 6 nM and the IC50 [3, 5] was 40 to 100 nM. The IC50 [4] was > 100 nM.
In the case of `COC(=O)N1CCC(n2cc(-c3n[nH]c4cc(OC)c(-c5cccc6c5CCC6)nc34)cn2)CC1` [Example 20, Methyl 4-(4-(5-(2,3-dihydro-1H-inden-4-yl)-6-methoxy-1H-pyrazolo[4,3-b]pyridin-3-yl)-1H-pyrazol-1-yl)piperidine-1-carboxylate], the IC50 [1] is reported as < 6 nM, the IC50 [2] is reported as < 6 nM and the IC50 [3, 5] is reported as 40 to 100 nM. For the same compound, the IC50 [4] was > 100 nM.
In the case of `COc1cc2[nH]nc(-c3ccc(N4CCOCC4)nc3)c2nc1-c1cccc(CC#N)c1C` [Example 56, 2-(3-(6-Methoxy-3-(6-morpholinopyridin-3-yl)-1H-pyrazolo[4,3-b]pyridin-5-yl)-2-methylphenyl)acetonitrile], the IC50 [1, 8] is reported as 6 to 40 nM, the IC50 [2] is reported as < 6 nM and the IC50 [3, 5] is reported as > 100 nM. For the same compound, the IC50 [4] was > 100 nM.
For `COc1cc2[nH]nc(-c3cnn(CCC#N)c3)c2nc1-c1cccc2c1CCC2` [Example 30, 3-(4-(5-(2,3-Dihydro-1H-inden-4-yl)-6-methoxy-1H-pyrazolo[4,3-b]pyridin-3-yl)-1H-pyrazol-1-yl)propanenitrile], the IC50 [1, 8] was 6 to 40 nM, the IC50 [2] was < 6 nM and the IC50 [3, 5] was > 100 nM. The IC50 [4] was 40 to 100 nM.
For `COc1cc2[nH]nc(-c3cnn(C4CN(S(=O)(=O)CCN(C)C)C4)c3)c2nc1-c1cccc2c1CCC2` [Example 151, 2-((3-(4-(5-(2,3-Dihydro-1H-inden-4-yl)-6-methoxy-1H-pyrazolo[4,3-b]pyridin-3-yl)-1H-pyrazol-1-yl)azetidin-1-yl)sulfonyl)-N,N-dimethylethan-1-amine], the IC50 [1] was < 6 nM, the IC50 [2] was < 6 nM and the IC50 [3, 6] was 6 to 40 nM. For the same compound, the IC50 [4] was 40 to 100 nM.
In the case of `COCCN1CCN(c2ccc(-c3n[nH]c4cc(OC)c(-c5cccc(CC#N)c5C)nc34)cn2)CC1` [Example 166, 2-(3-(6-Methoxy-3-(6-(4-(2-methoxyethyl)piperazin-1-yl)pyridin-3-yl)-1H-pyrazolo[4,3-b]pyridin-5-yl)-2-methylphenyl)acetonitrile], the IC50 [1] is reported as < 6 nM, the IC50 [2] is reported as < 6 nM and the IC50 [3, 5] is reported as 40 to 100 nM. For the same compound, the IC50 [4] was 40 to 100 nM.
For `[2H]C1(O)Cc2cccc(-c3nc4c(-c5cnn(C)c5)n[nH]c4cc3OC)c2C1` (single isomer, unassigned) [Example 74, 4-(6-Methoxy-3-(1-methyl-1H-pyrazol-4-yl)-1H-pyrazolo[4,3-b]pyridin-5-yl) 2,3-dihydro-1H-inden-2-d-2-ol], the IC50 [1] was < 6 nM, the IC50 [2] was < 6 nM and the IC50 [3, 6] was 6 to 40 nM. For the same compound, the IC50 [4] was > 100 nM.
For `COc1cc2[nH]nc(-c3ccc(C4CCN(C(=O)CO)C4)nc3)c2nc1-c1cccc2c1CCC2` (single isomer, unassigned) [Example 102, 1-(3-(5-(5-(2,3-Dihydro-1H-inden-4-yl)-6-methoxy-1H-pyrazolo[4,3-b]pyridin-3-yl)pyridin-2-yl)pyrrolidin-1-yl)-2-hydroxyethan-1-one], the IC50 [1, 8] was < 6 nM, the IC50 ([2]; read-out: FGFR3, wild-type un-phosphorylated FGFR3, pre-incubated for 4 hours) was < 6 nM and the IC50 [3, 6] was 6 to 40 nM. For the same compound, the IC50 [4, 7] was 6 to 40 nM.
